Measurements: patent US20200246352A1, “Vanadyl and vanadate for use in reducing stress-induced metabolic derangement” (CFM Pharma Holding B.V., priority 2017, published 2020)
Several values for one entry are separate records, joined by “and”; a condition that tells them apart may be missing. Equal values may be shown once. Read-outs that look alike come from different tables or passages of the source.

Test system: healthy male Wistar rats
Details: for Effect of adrenaline infusion on blood glucose level: 0.1, 0.3 or 1 μg/kg/min infusion for 180 min; for Blood glucose levels, individual animals in duplicate: medium adrenaline dose (MA) 0.3 μg/kg/min
Procedure: In the first part of the study (Table 1, Table 3, series 1), thirteen (13) healthy male Wistar rats were anesthetized by intraperitoneal (ip.) injection of thiopental (Tiobarbital 0.5 g, Braun Medical SA) after 12 hours of fasting.

SMILES: CNCC(O)c1ccc(O)c(O)c1 (stereo not shown) [adrenaline]
- Effect of adrenaline infusion on blood glucose level: inflicts hyperglycemic state in an adrenaline dose dependent manner
- Effect of adrenaline infusion on blood glucose level (listed as Adrenaline): dose-dependent continuous increase in blood glucose level
- Blood glucose level, mean (high dose 1 μg/kg/min infusion, 0 min (before infusion)): 5.39 mM/l
- Blood glucose level, mean (high dose 1 μg/kg/min infusion, 15 min): 5.46 mM/l
- Blood glucose level, mean (high dose 1 μg/kg/min infusion, 30 min): 5.69 mM/l
- Blood glucose level, mean (high dose 1 μg/kg/min infusion, 45 min): 6.62 mM/l
- Blood glucose level, mean (high dose 1 μg/kg/min infusion, 60 min): 7.93 mM/l
- Blood glucose level, mean (high dose 1 μg/kg/min infusion, 90 min): 10.95 mM/l
- Blood glucose level, mean (high dose 1 μg/kg/min infusion, 120 min): 13.25 mM/l
- Blood glucose level, mean (high dose 1 μg/kg/min infusion, 150 min): 13.65 mM/l
- Blood glucose level, mean (high dose 1 μg/kg/min infusion, 180 min): 13.81 mM/l
- Time of peak blood glucose level after start of infusion (highest dose 1 μg/kg/min): around 120 min
- Blood glucose level, mean (low dose 0.1 μg/kg/min infusion, 0 min (before infusion)): 5.09 mM/l
- Blood glucose level, mean (low dose 0.1 μg/kg/min infusion, 15 min): 5.31 mM/l
- Blood glucose level, mean (low dose 0.1 μg/kg/min infusion, 30 min): 5.26 mM/l
- Blood glucose level, mean (low dose 0.1 μg/kg/min infusion, 45 min): 5.18 mM/l
- Blood glucose level, mean (low dose 0.1 μg/kg/min infusion, 60 min): 5.70 mM/l
- Blood glucose level, mean (low dose 0.1 μg/kg/min infusion, 90 min): 6.16 mM/l
- Blood glucose level, mean (low dose 0.1 μg/kg/min infusion, 120 min): 7.09 mM/l
- Blood glucose level, mean (low dose 0.1 μg/kg/min infusion, 150 min): 7.89 mM/l
- Blood glucose level, mean (low dose 0.1 μg/kg/min infusion, 180 min): 8.34 mM/l
- Blood glucose levels, individual animals in duplicate (30 min): 6.0 mM/l (2×) and 5.9 mM/l
- Blood glucose levels, individual animals in duplicate (45 min): 4.7 mM/l and 4.3 mM/l and 5.7 mM/l
- Blood glucose levels, individual animals in duplicate (60 min): 6.4 mM/l (2×) and 6.7 mM/l
- Blood glucose levels, individual animals in duplicate (90 min): 6.0 mM/l and 7.4 mM/l and 9.5 mM/l
- Blood glucose levels, individual animals in duplicate (120 min): 8.7 mM/l and 8.9 mM/l and 11.7 mM/l
- Blood glucose levels, individual animals in duplicate (150 min): 7.5 mM/l and 7.1 mM/l and 12.8 mM/l
- Blood glucose levels, individual animals in duplicate (180 min): 5.3 mM/l (2×) and 13.2 mM/l
- Blood glucose level, mean (medium dose 0.3 μg/kg/min infusion, 0 min (before infusion)): 5.53 mM/l
- Blood glucose level, mean (medium dose 0.3 μg/kg/min infusion, 15 min): 6.45 mM/l
- Blood glucose level, mean (medium dose 0.3 μg/kg/min infusion, 30 min): 6.36 mM/l
- Blood glucose level, mean (medium dose 0.3 μg/kg/min infusion, 45 min): 6.34 mM/l
- Blood glucose level, mean (medium dose 0.3 μg/kg/min infusion, 60 min): 7.85 mM/l
- Blood glucose level, mean (medium dose 0.3 μg/kg/min infusion, 90 min): 10.15 mM/l
- Blood glucose level, mean (medium dose 0.3 μg/kg/min infusion, 120 min): 11.36 mM/l
- Blood glucose level, mean (medium dose 0.3 μg/kg/min infusion, 150 min): 10.96 mM/l
- Blood glucose level, mean (medium dose 0.3 μg/kg/min infusion, 180 min): 10.19 mM/l
